Patent EP4631504A1, “COMPOSITION FOR PREVENTION OR TREATMENT OF FABRY'S DISEASE” (Korea Advanced Institute of Science and Technology, priority 2022, dated 2024)
Entries after “also recorded” stand apart in the source; their conditions may differ. Counter-ions that a name gives are not always drawn.

What was measured:
FD-VECs [1] = assay: Tube-like structure formation assay of FD-VECs; assay type: cell-based, human; settings: for tube formation ability: 0.5, 1, and 5 µM, versus DMSO control; for optimal concentration: based on tube formation of FD-VECs; for tube formation ability of VECs derived from FD-iPSC lines with distinct GLA mutations: fasudil at 5 µM
Description: FD-iPSC lines that were generated from fibroblasts of three FD patients with a GLA variant were used. A wild-type (WT) iPSC line derived from foreskin fibroblasts and a FD1 isogenic iPSC line were used as controls. Human iPSCs (hiPSCs) were maintained in mTeSR1 medium ([…] Technologies, Vancouver, Canada) on culture plates precoated with Corning Matrigel® hESC-Qualified Matrix. The cells were maintained at 37°C in a 5% CO2 incubator. After 7 days of culture, hiPSC colonies were split at a 1:50 ratio using accutase solution (eBioscience, San Diego, CA, USA) and incubated under the same culture conditions for expansion.
Human iPSCs were differentiated into VECs as described previously, with further optimization. Briefly, hiPSCs were transferred to dishes coated with Matrigel® (BD Biosciences, Franklin Lakes, NJ, USA) and cultured for 2 days in mTESR1 medium ([…] Technologies) at 37°C and 5% CO2. Subsequently, the cells were cultured for a further 2 days in VEC medium (RPMI (HyClone, Logan, MI, USA), 1% B27 (Invitrogen, Carlsbad, CA, USA), and penicillin/streptomycin (Invitrogen)) supplemented with 50 ng/mL Activin A (PeproTech, Rocky Hill, NJ, USA) and 20 ng/mL BMP4 (PeproTech), and 3 µM CHIR990921 (Sigma, St. Louis, MO) at 37°C and 5% CO2. Next, the cells were cultured for 3 days in VEC medium containing 50 ng/mL VEGF-A (PeproTech) and 50 ng/mL bFGF, at 37°C and 5% CO2. To differentiate the vascular progenitors into VECs, CD31^+ cells were sorted from the differentiated cells by MACS using CD31^+ Dynabeads (Thermo Fisher Scientific, Waltham, MA, USA). The CD31^+ cells were transferred to gelatin-coated plates and incubated for 3 days in EGM-2 medium (Lonza, Basel, Switzerland) supplemented with 100 ng/mL VEGF-A and 50 ng/mL bFGF, at 37°C and 5% CO2. The culture medium was changed daily. Finally, the vascular progenitors were cultured in EGM-2 medium without growth factors for 4 days with daily medium change.
To screen for clinical compounds that could rescue FD-VEC dysfunction, VECs were seeded onto gelatin-coated 96-well plates (SPL Life Sciences, Pocheon, Korea) at a density of 3 × 10^3 cells/cm^2 and maintained in EGM-2 medium without growth factors for 24 hours. […] Subsequently, it was examined whether FD-VECs treated with each selected compound could form tube-like structures on Matrigel®-coated plates. The tube-like structure forming assay was repeated at least three times using different concentrations of each selected compound (0.5, 1, and 5 µM).
FD-VECs were dissociated after treatment with Accutase (eBioscience) at 37°C for 5 min. Dissociated cells (1 × 10^4) were transferred to Matrigel® matrix (BD Biosciences) in EGM-2 medium supplemented with 100 ng/mL VEGF-A, and then incubated at 37°C and 5% CO2 for 24 hours. Images of the vascular tube-like structures were taken using an inverted microscope (Olympus, Tokyo, Japan). Total tube lengths were measured using ImageJ software, which was freely provided by the […], and its Angiogenesis Analyzer plugin (Carpentier, 2012).

[2] = test system: Fabry disease vascular endothelial cells; assay: Tube formation experiment with ROCK inhibitors; assay type: cell-based, human; settings: 5 µM
Description: [Table 1] ROCK inhibitors used in the first experiment
Second experiment: To confirm whether decreased tube formation in vascular endothelial cells derived from Fabry disease-induced pluripotent stem cells was rescued by treatment with 7 types of ROCK inhibitors (netarsudil, ripasudil, sovesudil, AT13148, AR13503, VX-210, and […]), a tube formation experiment was conducted (Table 2). [Table 2] Types of ROCK inhibitors used in the second experiment
Matrigel was applied to a 96-well plate which was then stored in a 5% CO2 incubator a 37°C for one day. The next day, each ROCK inhibitor was added to each well at various concentrations (5 µM, 1 µM, 0.5 µM, 0.1 µM, 0.05 µM, and 0.01 µM) together with […] VEGF in EGM-2 media.
10,000 vascular endothelial cells per well were applied onto the solidified Matrigel, and after one day, each well was photographed under a microscope. Then, the total tube length was analyzed using Image J to compare the increase and decrease in tube formation.

Rock2 = Rock2 (Homo sapiens, UniProt O75116); settings: cited from earlier work
Sequence of Rock2 (O75116 whole entry, species assumed): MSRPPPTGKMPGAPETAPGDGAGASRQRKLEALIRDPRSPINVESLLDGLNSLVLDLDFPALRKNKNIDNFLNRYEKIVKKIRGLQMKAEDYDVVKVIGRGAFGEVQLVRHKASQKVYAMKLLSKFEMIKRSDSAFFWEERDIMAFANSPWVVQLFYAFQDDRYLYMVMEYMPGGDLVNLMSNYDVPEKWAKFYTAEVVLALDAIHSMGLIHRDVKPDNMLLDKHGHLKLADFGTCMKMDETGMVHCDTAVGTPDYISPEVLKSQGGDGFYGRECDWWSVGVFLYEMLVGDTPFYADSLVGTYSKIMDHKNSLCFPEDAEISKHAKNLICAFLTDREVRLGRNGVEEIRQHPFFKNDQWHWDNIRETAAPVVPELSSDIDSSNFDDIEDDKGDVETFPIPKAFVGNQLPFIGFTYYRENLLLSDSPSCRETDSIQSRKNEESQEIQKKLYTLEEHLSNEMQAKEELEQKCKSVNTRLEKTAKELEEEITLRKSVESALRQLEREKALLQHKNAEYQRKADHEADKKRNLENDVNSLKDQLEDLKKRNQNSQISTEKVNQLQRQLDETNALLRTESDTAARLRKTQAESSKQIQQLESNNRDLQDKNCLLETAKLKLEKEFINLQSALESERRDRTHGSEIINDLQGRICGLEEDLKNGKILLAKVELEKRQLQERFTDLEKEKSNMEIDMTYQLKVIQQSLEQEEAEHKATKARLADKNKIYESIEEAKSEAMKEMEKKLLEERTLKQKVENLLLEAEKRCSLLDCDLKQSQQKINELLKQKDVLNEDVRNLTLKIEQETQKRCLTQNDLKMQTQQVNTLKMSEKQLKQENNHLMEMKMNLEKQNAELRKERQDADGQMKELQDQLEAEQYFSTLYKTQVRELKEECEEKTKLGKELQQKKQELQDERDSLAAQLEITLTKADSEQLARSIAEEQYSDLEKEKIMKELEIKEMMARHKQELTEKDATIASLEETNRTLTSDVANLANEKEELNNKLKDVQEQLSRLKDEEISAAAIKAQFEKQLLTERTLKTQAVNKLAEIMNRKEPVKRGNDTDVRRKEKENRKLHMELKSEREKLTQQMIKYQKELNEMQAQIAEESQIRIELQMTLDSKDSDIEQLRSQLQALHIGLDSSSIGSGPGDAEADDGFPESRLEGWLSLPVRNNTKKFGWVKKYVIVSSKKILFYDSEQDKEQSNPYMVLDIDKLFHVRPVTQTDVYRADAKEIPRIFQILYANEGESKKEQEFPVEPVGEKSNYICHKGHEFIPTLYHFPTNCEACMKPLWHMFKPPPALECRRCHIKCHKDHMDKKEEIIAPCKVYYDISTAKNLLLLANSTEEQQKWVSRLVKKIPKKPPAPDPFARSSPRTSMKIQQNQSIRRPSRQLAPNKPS

EndMT of FD-VECs = assay: EndMT-associated factors in FD-VECs (Western blot, immunostaining); assay type: cell-based, human; settings: for levels of mesenchymal-related markers (COL1A1, ACTA2, SNAI1, and TWIST) / protein level of CD31: Western blot; for fluorescence intensities of EndMT-related factors (ACTA2, SNAI1, COL1A1): immunostaining
Text: Hyperactive SMAD2 signaling induces EndMT in VECs, thereby reducing angiogenic functionality. […] Before drug treatment, the present inventors performed bulk RNA sequencing of FD-VECs and FD(c)-VECs to examine the mechanism underlying the defective vasculopathy of FD-VECs.

[3] = test system: FD mice (Gla^-/-/TSP1^Tg); assay: Immunohistochemistry and Western blot of renal tissues of FD mice; assay type: in vivo; settings: oral administration; for protein levels of fibrotic and inflammatory markers in renal tissues: Western blot; for CD31+ACTA2+ cells in renal tissues / expression levels of F4/80 and LCN2 in renal tissues / expression of COL1A1 in renal tissues: immunohistochemistry
[4] = test system: FD mice (Gla^-/-/TSP1^Tg); assay: Heat tolerance test (paw withdrawal latency) in FD mice; assay type: in vivo; settings: oral, 10 or 30 mg/kg/day for 6 months
[5] = test system: FD mice (Gla^-/-/TSP1^Tg); assay: Echocardiography of FD mice after oral administration; assay type: in vivo; settings: 10 or 30 mg/kg/day for 6 months
Text: Therefore, the present inventors hypothesized that Gla^-/- mice expressing human TSP1 (Gla^-/-/TSP1^Tg; hereinafter referred to as FD mice) might be an effective animal model for studying FD-related vasculopathy. […] LVH is known to occur in up to half of males and one-third of females in FD patients (Kampmann C, Linhart A, Baehner F, Palecek T, Wiethoff CM, Miebach E, Whybra C, Gal A, Bultas J, Beck M (2008) Onset and progression of the Anderson-Fabry disease related cardiomyopathy. International Journal of Cardiology 130: 367-73). Thus, the present inventors investigated the cardiac functionality in each mouse group via echocardiography.
To this end, FD-mice (Gla^-/-/TSP1^Tg) were produced by crossing transgenic mice expressing human TSP1 with Gla^-/- mice. The produced mice were then orally administered lomerizine (10 or 30 mg/kg/day) for 6 months (FIG. 18A).

FD-VECs [6] = assay: Extracellular flux analysis of oxygen consumption rate (OCR); assay type: cell-based, human
[7] = test system: p-SMAD2, SMAD2, TSP1, KDR, eNOS; assay: Western blot analysis of p-SMAD2, TSP1, KDR and eNOS in FD-VECs; assay type: cell-based, human; settings: compared to non-treated FD-VECs
[8] = test system: FD mice (Gla^-/-/TSP1^Tg); assay: Sweat secretion analysis in FD mice; assay type: in vivo; settings: oral, 10 or 30 mg/kg/day for 6 months
FD-VECs [9] = assay: ROS fluorescence intensity in FD-VECs; assay type: cell-based, human
[10] = test system: Fabry disease mice (Gla^-/-); assay: Echocardiography of Gla^-/- mice after co-administration; assay type: in vivo; settings: fasudil 30 mg/kg daily oral; enzyme 1 mg/kg i.v. once a week; 6 months
[11] = test system: Fabry disease mice (Gla^-/-); assay: Sweat secretion of Gla^-/- mice after co-administration; assay type: in vivo; settings: fasudil 30 mg/kg daily oral; enzyme 1 mg/kg i.v. once a week; 6 months
[12] = test system: Fabry disease mice (Gla^-/-); assay: Kidney tissue analysis of Gla^-/- mice after co-administration; assay type: in vivo; settings: fasudil 30 mg/kg daily oral; enzyme 1 mg/kg i.v. once a week; 6 months
[13] = test system: Fabry disease mice (Gla^-/-); assay: Hot plate test (55°C) of Gla^-/- mice after co-administration; assay type: in vivo; settings: hot plate 55°C; fasudil 30 mg/kg daily oral; enzyme 1 mg/kg i.v. once a week; 6 months
Description: Many Fabry disease patients suffer from peripheral neuropathic pain, and one way to indirectly assess the pain in laboratory animals is to measure the time it takes for the hind limbs to jump on a hot plate at 55°C.

Rock1 = Rock1 (Homo sapiens, UniProt Q13464); settings: cited from earlier work
Sequence of Rock1 (Q13464 whole entry, species assumed): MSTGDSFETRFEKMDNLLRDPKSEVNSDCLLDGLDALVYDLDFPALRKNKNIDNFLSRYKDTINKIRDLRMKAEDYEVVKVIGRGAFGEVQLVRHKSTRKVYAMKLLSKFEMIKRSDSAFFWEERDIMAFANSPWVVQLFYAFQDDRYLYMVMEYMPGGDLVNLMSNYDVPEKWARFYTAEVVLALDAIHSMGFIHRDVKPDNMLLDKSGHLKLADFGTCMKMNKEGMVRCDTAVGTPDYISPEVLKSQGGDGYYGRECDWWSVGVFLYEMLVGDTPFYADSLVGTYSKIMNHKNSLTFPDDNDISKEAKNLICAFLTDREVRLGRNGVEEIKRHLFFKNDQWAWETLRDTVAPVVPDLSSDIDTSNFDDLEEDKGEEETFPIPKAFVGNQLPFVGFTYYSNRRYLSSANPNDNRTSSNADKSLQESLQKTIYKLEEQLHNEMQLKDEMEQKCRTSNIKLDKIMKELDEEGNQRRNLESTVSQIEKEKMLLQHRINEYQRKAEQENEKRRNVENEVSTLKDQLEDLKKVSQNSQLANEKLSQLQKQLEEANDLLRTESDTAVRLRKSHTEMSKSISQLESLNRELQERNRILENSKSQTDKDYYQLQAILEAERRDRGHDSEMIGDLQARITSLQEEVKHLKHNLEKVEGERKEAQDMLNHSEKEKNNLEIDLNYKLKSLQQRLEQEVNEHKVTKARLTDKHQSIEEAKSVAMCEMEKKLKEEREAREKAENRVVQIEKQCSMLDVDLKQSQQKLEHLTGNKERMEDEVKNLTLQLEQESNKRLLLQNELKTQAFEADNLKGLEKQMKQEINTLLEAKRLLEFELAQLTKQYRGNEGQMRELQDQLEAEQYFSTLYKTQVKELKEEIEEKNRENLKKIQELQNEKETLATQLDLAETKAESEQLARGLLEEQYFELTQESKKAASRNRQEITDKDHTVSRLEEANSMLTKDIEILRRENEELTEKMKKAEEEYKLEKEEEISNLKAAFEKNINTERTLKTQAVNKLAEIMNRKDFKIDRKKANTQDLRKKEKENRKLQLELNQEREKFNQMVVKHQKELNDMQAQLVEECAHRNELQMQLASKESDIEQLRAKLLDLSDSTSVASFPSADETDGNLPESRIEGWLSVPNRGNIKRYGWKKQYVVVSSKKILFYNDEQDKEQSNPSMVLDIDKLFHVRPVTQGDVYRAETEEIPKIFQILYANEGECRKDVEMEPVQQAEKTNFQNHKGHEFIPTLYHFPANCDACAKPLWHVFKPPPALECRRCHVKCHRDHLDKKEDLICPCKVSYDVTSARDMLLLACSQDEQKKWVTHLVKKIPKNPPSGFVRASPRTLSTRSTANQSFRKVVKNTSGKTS

Cc1c(Cl)cccc1Nc1ccccc1C(=O)O [tolfenamic acid]
tube formation ability (FD-VECs [1]): relatively higher tube formation ability

C[C@@H](N)[C@H]1CC[C@H](C(=O)Nc2ccncc2)CC1 [Y27632]
tube formation ability of Fabry disease vascular endothelial cells [2]: effective in improving the impaired tube formation ability

CC1=C(C(=O)Nc2cc3cn[nH]c3cc2F)C(c2ccc(C(F)(F)F)cc2)CC(=O)N1 (centres unmarked) [GSK429286A]
tube formation ability of Fabry disease vascular endothelial cells [2]: effective in improving the impaired tube formation ability

O=C(Nc1ccncc1)c1cc([N+](=O)[O-])ccc1Cl [T0070907]
tube formation ability (FD-VECs [1]): relatively higher tube formation ability

NC[C@@H](C(=O)Nc1ccc2cnccc2c1)c1ccc(CO)cc1 [AR-13503]
IC50 (Rock2): 4.2 nM
tube formation ability of Fabry disease vascular endothelial cells [2]: increased the tube formation ability

CCOC(CN1CCN(CC(C)C(=O)c2ccccc2)CC1)c1ccccc1 (centres unmarked) [eprazinone]
tube formation ability (FD-VECs [1]): relatively higher tube formation ability

NC(=O)c1ccc(-c2nc(-c3ccc4c(c3)OCCO4)c(-c3ccccn3)[nH]2)cc1 [D-4476]
tube formation ability (FD-VECs [1]): relatively higher tube formation ability

C[C@@H](N)c1ccc(C(=O)Nc2ccnc3[nH]ccc23)cc1 [Y39983]
tube formation ability of Fabry disease vascular endothelial cells [2]: effective in improving the impaired tube formation ability

COc1ccc(CN2CCN(C(c3ccc(F)cc3)c3ccc(F)cc3)CC2)c(OC)c1OC [lomerizine]
levels of mesenchymal-related markers (COL1A1, ACTA2, SNAI1, and TWIST) (EndMT of FD-VECs): reduced
protein level of CD31 (EndMT of FD-VECs): increased
fluorescence intensities of EndMT-related factors (ACTA2, SNAI1, COL1A1) (EndMT of FD-VECs): reduced
protein levels of fibrotic and inflammatory markers in renal tissues [3]: reduced
CD31+ACTA2+ cells in renal tissues [3]: reduced this increase
expression levels of F4/80 and LCN2 in renal tissues [3]: reduced
expression of COL1A1 in renal tissues [3]: downregulated
heat insensitivity (paw withdrawal latency) [4]: rescued this phenotype
tube formation ability (FD-VECs [1]): relatively higher tube formation ability
optimal concentration (FD-VECs [1]): 1 µM
tube formation ability of VECs derived from FD-iPSC lines with distinct GLA mutations (FD-VECs [1]): enhanced
total tube length of FD-VECs (FD-VECs [1]; tube formation assay, versus untreated FD-VECs): significantly increased
LV mass/BW [5]: reduced
cardiac ejection fraction, fractional shortening, and cardiac output [5]: significant improvements
maximal respiration (FD-VECs [6]): slight decrease
levels of KDR and eNOS [7]: increased
levels of p-SMAD2 and TSP1 [7]: reduced
anhidrosis (number of sweat spots) [8]: rescued this phenotype
level of ROS (FD-VECs [9]): reduced the excess ROS produced in FD-VECs to the same level as that in WT- and FD(c)-VECs

O=S(=O)(c1cccc2cnccc12)N1CCCNCC1 [fasudil]
cardiac function [10]: improvement in cardiac function
left ventricular hypertrophy [10]: significant reduction
sweating [11]: reduced
levels of mesenchymal-related markers (COL1A1, ACTA2, SNAI1, and TWIST) (EndMT of FD-VECs): reduced
protein level of CD31 (EndMT of FD-VECs): increased
fluorescence intensities of EndMT-related factors (ACTA2, SNAI1, COL1A1) (EndMT of FD-VECs): reduced
protein levels of fibrotic and inflammatory markers in renal tissues [3]: confirmed by Western blot analysis
CD31+ACTA2+ cells in renal tissues [3]: reduced
expression levels of F4/80 and LCN2 in renal tissues [3]: reduced
expression of COL1A1 in renal tissues [3]: downregulated
expression of fibrosis-related marker (COL1A1) and inflammation markers (LCN2 and F4/80) in kidney tissues [12]: reduced
heat insensitivity (paw withdrawal latency) [4]: significantly alleviated
latency (time for hind limbs to jump on hot plate) [13]: slight decrease in latency
tube length of FD-VECs (FD-VECs [1]; 5 µM, compared to the untreated group): significantly increased
tube formation ability (FD-VECs [1]): relatively higher tube formation ability; also recorded: most effective
optimal concentration (FD-VECs [1]): 5 µM
tube formation ability of VECs derived from FD-iPSC lines with distinct GLA mutations (FD-VECs [1]): enhanced
LV mass/BW [5]: significantly reduced
cardiac ejection fraction, fractional shortening, and cardiac output [5]: enhanced
basal respiration, ATP production, or spare capacity (FD-VECs [6]): did not alter
maximal respiration (FD-VECs [6]): partially reduced
levels of KDR and eNOS [7]: increased
levels of p-SMAD2 and TSP1 [7]: reduced
anhidrosis (number of sweat spots) [8]: significantly alleviated
level of ROS (FD-VECs [9]): reduced the level of ROS to that seen in WT-VECs and FD(c)-VECs

CCCOC(=O)c1cccc(-c2cc(C(=O)Nc3ccncc3F)ccc2CN)c1 [AMA-0076, Sovesudil]
IC50 (Rock2): 23 nM
IC50 (Rock1): 3.7 nM
tube formation ability of Fabry disease vascular endothelial cells [2]: increased the tube formation ability

NC(=O)c1ccc(-c2nc(-c3ccc4c(c3)OCO4)c(-c3ccccn3)[nH]2)cc1 [SB431542]
tube formation ability of Fabry disease vascular endothelial cells [2]: increased tube formation ability

C[C@H]1CNCCCN1S(=O)(=O)c1cccc2cncc(F)c12 [Ripasudil hydrochloride hydrate]
tube formation ability of Fabry disease vascular endothelial cells [2]: increased the tube formation ability

NC[C@@](O)(c1ccc(Cl)cc1)c1ccc(-c2cn[nH]c2)cc1 [AT-13148]
IC50 (Rock2): 4 nM
IC50 (Rock1): 6 nM
tube formation ability of Fabry disease vascular endothelial cells [2]: increased the tube formation ability

Netarsudil mesylate
tube formation ability of Fabry disease vascular endothelial cells [2]: increased the tube formation ability
